The source made the active and inactive calls. No rule for the calls is given here.
System: CCRIS mutagenicity, Ames/micronucleus/aberration tests
Assay: CCRIS mutagenicity studies
[1] = Test System: AMES SALMONELLA TYPHIMURIUM, Strain/Indicator: TA100, Metabolic Activation: NONE, Method: STANDARD PLATE
[2] = Test System: AMES SALMONELLA TYPHIMURIUM, Strain/Indicator: TA98, Metabolic Activation: NONE, Method: PREINCUBATION
[3] = Test System: AMES SALMONELLA TYPHIMURIUM, Strain/Indicator: TA100, Metabolic Activation: NONE, Method: PREINCUBATION
[4] = Test System: AMES SALMONELLA TYPHIMURIUM, Strain/Indicator: TA102, Metabolic Activation: NONE, Method: PREINCUBATION

In the case of `Cc1ccc([N+](=O)[O-])c2c(NCCCN(C)C)c3ccccc3nc12`, the mutagenic call (Test System: AMES SALMONELLA TYPHIMURIUM, Strain/Indicator: TA98, Metabolic Activation: NONE, Method: STANDARD PLATE) was “active; positive” and the mutagenic call [1] was “active; positive”.
`O=C(O)/C=C/C(=O)CC(=O)CC(=O)O` was tested, and the mutagenic call (Test System: CHINESE HAMSTER V-79, Strain/Indicator: V-79 (HGPRT)/6-THIOGUANINE, Metabolic Activation: NONE) was “active; positive”.
For `c1ccc(-c2ccncc2)nc1`, the mutagenic call (Test System: AMES SALMONELLA TYPHIMURIUM, Strain/Indicator: TA97, Metabolic Activation: RAT, LIVER, S-9, PHENOBARBITAL, Method: STANDARD PLATE) was “inactive; negative”, the mutagenic call (Test System: AMES SALMONELLA TYPHIMURIUM, Strain/Indicator: TA98, Metabolic Activation: RAT, LIVER, S-9, PHENOBARBITAL, Method: STANDARD PLATE) was “active; positive” and the mutagenic call (Test System: AMES SALMONELLA TYPHIMURIUM, Strain/Indicator: TA100, Metabolic Activation: RAT, LIVER, S-9, PHENOBARBITAL, Method: STANDARD PLATE) was “inactive; negative”. For the same compound, the mutagenic call (Test System: AMES SALMONELLA TYPHIMURIUM, Strain/Indicator: TA1535, Metabolic Activation: RAT, LIVER, S-9, PHENOBARBITAL, Method: STANDARD PLATE) was “inactive; negative”, the mutagenic call (Test System: AMES SALMONELLA TYPHIMURIUM, Strain/Indicator: TA1537, Metabolic Activation: RAT, LIVER, S-9, PHENOBARBITAL, Method: STANDARD PLATE) was “active; positive” and the mutagenic call (Test System: AMES SALMONELLA TYPHIMURIUM, Strain/Indicator: TA1538, Metabolic Activation: RAT, LIVER, S-9, PHENOBARBITAL, Method: STANDARD PLATE) was “inactive; negative”.
`CC(=O)ON(OC(C)C)C(=O)c1ccccc1` was tested, and the mutagenic call [1] was “active; positive” and the mutagenic call (Test System: AMES SALMONELLA TYPHIMURIUM, Strain/Indicator: TA100, Metabolic Activation: RAT, S-9, AROCLOR, Method: STANDARD PLATE) was “active; positive”.
With `CC(C)Nc1nc(Cl)nc(NCC(=O)O)n1` the mutagenic call (End Point: In vivo micronucleus, Test System: Bone marrow erythrocytes, Species: Mouse, Strain/Sex: Crl:CD-1, Route: Gavage) was “inactive; negative; proportion of pces per 1000 erythrocytes depressed”.
For `Cc1cc(C)c2nc3c(ccc4ccccc43)c(C)c2c1`, the mutagenic call (Test System: AMES SALMONELLA TYPHIMURIUM, Strain/Indicator: TA97A, Metabolic Activation: NONE, Method: PREINCUBATION) was “inactive; negative”, the mutagenic call [2] was “active; positive” and the mutagenic call [3] was “active; positive”. The mutagenic call [4] was “inactive; negative”.
For `COC(=O)C1Cc2c([nH]c3ccc([N+](=O)[O-])cc23)C(C)N1N=O` (stereo not drawn), the mutagenic call (Test System: AMES SALMONELLA TYPHIMURIUM, Strain/Indicator: TA98(NR), Metabolic Activation: NONE, Method: STANDARD PLATE) was “active; positive” and the mutagenic call (Test System: AMES SALMONELLA TYPHIMURIUM, Strain/Indicator: TA98(NR), Metabolic Activation: RAT, LIVER, S-9, AROCLOR 1254, Method: STANDARD PLATE) was “inactive; negative”.
With `CCCCBr` the mutagenic call (End Point: In vitro micronucleus, Test System: Chinese Hamster Ovary (CHO-WBL) cells, Metabolic Activation: None) was “inactive; negative”, the mutagenic call (Test System: AMES SALMONELLA TYPHIMURIUM, Strain/Indicator: TA100, Metabolic Activation: NONE, Method: DESICCATOR) was “active; positive” and the mutagenic call (Test System: AMES SALMONELLA TYPHIMURIUM, Strain/Indicator: TA100, Metabolic Activation: RAT, LIVER, S-9, AROCLOR 1254, Method: DESICCATOR) was “active; positive”. The mutagenic call (Test System: AMES SALMONELLA TYPHIMURIUM, Strain/Indicator: TA1535, Metabolic Activation: NONE, Method: DESICCATOR) was “active; positive” and the mutagenic call (Test System: AMES SALMONELLA TYPHIMURIUM, Strain/Indicator: TA1535, Metabolic Activation: RAT, LIVER, S-9, AROCLOR 1254, Method: DESICCATOR) was “active; positive”.
In the case of `CC(Br)(CCl)CBr` (stereo not drawn), the mutagenic call (Test System: AMES SALMONELLA TYPHIMURIUM, Strain/Indicator: TA98, Metabolic Activation: NONE, Method: FLASK ASSAY) was “inactive; negative”, the mutagenic call (Test System: AMES SALMONELLA TYPHIMURIUM, Strain/Indicator: TA98, Metabolic Activation: RAT, LIVER, S-9, AROCLOR 1254, Method: FLASK ASSAY) was “inactive; negative” and the mutagenic call (Test System: AMES SALMONELLA TYPHIMURIUM, Strain/Indicator: TA100, Metabolic Activation: NONE, Method: FLASK ASSAY) was “inactive; negative”. The mutagenic call (Test System: AMES SALMONELLA TYPHIMURIUM, Strain/Indicator: TA100, Metabolic Activation: RAT, LIVER, MICROSOMES, PHENOBARBITAL, Method: PREINCUBATION) was “inactive; negative”, the mutagenic call (Test System: AMES SALMONELLA TYPHIMURIUM, Strain/Indicator: TA100, Metabolic Activation: RAT, LIVER, MICROSOMES, Method: PREINCUBATION) was “inactive; negative” and the mutagenic call (Test System: AMES SALMONELLA TYPHIMURIUM, Strain/Indicator: TA100, Metabolic Activation: RAT, LIVER, S-9, AROCLOR 1254, Method: FLASK ASSAY) was “inactive; negative”. For the same compound, the mutagenic call (Test System: AMES SALMONELLA TYPHIMURIUM, Strain/Indicator: TA1535, Metabolic Activation: NONE, Method: FLASK ASSAY) was “inactive; negative”, the mutagenic call (Test System: AMES SALMONELLA TYPHIMURIUM, Strain/Indicator: TA1535, Metabolic Activation: RAT, LIVER, S-9, AROCLOR 1254, Method: FLASK ASSAY) was “inactive; negative” and the mutagenic call (Test System: AMES SALMONELLA TYPHIMURIUM, Strain/Indicator: TA1537, Metabolic Activation: NONE, Method: FLASK ASSAY) was “inactive; negative”. The mutagenic call (Test System: AMES SALMONELLA TYPHIMURIUM, Strain/Indicator: TA1537, Metabolic Activation: RAT, LIVER, S-9, AROCLOR 1254, Method: FLASK ASSAY) was “inactive; negative”, the mutagenic call (Test System: AMES SALMONELLA TYPHIMURIUM, Strain/Indicator: TA1538, Metabolic Activation: NONE, Method: FLASK ASSAY) was “inactive; negative” and the mutagenic call (Test System: AMES SALMONELLA TYPHIMURIUM, Strain/Indicator: TA1538, Metabolic Activation: RAT, LIVER, S-9, AROCLOR 1254, Method: FLASK ASSAY) was “inactive; negative”. For the same compound, the mutagenic call (Test System: MOUSE LYMPHOMA, Strain/Indicator: L5178Y (TK+/TK-), Metabolic Activation: NONE, Method: SUSPENSION/PLATE) was “active; positive” and the mutagenic call (Test System: MOUSE LYMPHOMA, Strain/Indicator: L5178Y (TK+/TK-), Metabolic Activation: RAT, LIVER, S-9, AROCLOR 1254, Method: SUSPENSION/PLATE) was “inactive; negative”.
With `Fc1ccc2c3c(cccc13)-c1c-2ccc2ccccc12` the mutagenic call (Test System: AMES SALMONELLA TYPHIMURIUM, Strain/Indicator: TA97A, Metabolic Activation: RAT, LIVER, S-9, AROCLOR 1254, Method: PREINCUBATION) was “active; positive”, the mutagenic call (Test System: AMES SALMONELLA TYPHIMURIUM, Strain/Indicator: TA98, Metabolic Activation: RAT, LIVER, S-9, AROCLOR 1254, Method: PREINCUBATION) was “active; positive” and the mutagenic call (Test System: AMES SALMONELLA TYPHIMURIUM, Strain/Indicator: TA100, Metabolic Activation: RAT, LIVER, S-9, AROCLOR 1254, Method: PREINCUBATION) was “active; positive”.
`O=C(O)c1ccc(/C=N/n2nnc3c([nH]c4ccccc43)c2=O)cc1` was tested, and the mutagenic call (Test System: AMES SALMONELLA TYPHIMURIUM, Strain/Indicator: TA97, Metabolic Activation: NONE, Method: PREINCUBATION) was “active; positive”, the mutagenic call (Test System: AMES SALMONELLA TYPHIMURIUM, Strain/Indicator: TA97, Metabolic Activation: RAT, LIVER, S-9, AROCLOR 1254 (10%), Method: PREINCUBATION) was “active; positive” and the mutagenic call [2] was “active; positive”. The mutagenic call (Test System: AMES SALMONELLA TYPHIMURIUM, Strain/Indicator: TA98, Metabolic Activation: RAT, LIVER, S-9, AROCLOR 1254 (10%), Method: PREINCUBATION) was “active; positive”, the mutagenic call [3] was “active; positive” and the mutagenic call (Test System: AMES SALMONELLA TYPHIMURIUM, Strain/Indicator: TA100, Metabolic Activation: RAT, LIVER, S-9, AROCLOR 1254 (10%), Method: PREINCUBATION) was “active; positive”. The mutagenic call [4] was “inactive; negative” and the mutagenic call (Test System: AMES SALMONELLA TYPHIMURIUM, Strain/Indicator: TA102, Metabolic Activation: RAT, LIVER, S-9, AROCLOR 1254 (10%), Method: PREINCUBATION) was “active; positive”.
